Reference: patent US9963448B2, “Bicyclic inhibitors of PAD4” (Padlock Therapeutics, Inc., priority 2015, dated 2018)
Like-named read-outs stand apart in the source and are kept apart here.

What was measured:
[1] = target: mPAD4 (Mus musculus, UniProt Q9Z183); experiment: mPAD4 RFMS PAD4 inhibition assay; type: biochemical; details: mPAD4, RFMS readout;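 on mPAD4 RFMS pIC50: grade E means pIC50 at most 4 and F means pIC50 4.0 to 5.0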
Protocol: (§1) Compounds of the present invention were assayed as inhibitors of PAD4 using the assay protocol described below.
(§2) Compound stock solutions were stored at RT. […] Final assay conditions were as follows:
(§3) Total incubation time: 65 mins at 37° C.
(§4) Stop solution: 40 μl 5% TCA in ACN
(§5) The compound numbers correspond to the compound numbers in Table 1. […] The term pIC50=−log(IC50). […] “NA” stands for “not assayed.”

[2] = target: hPAD4 (Homo sapiens, UniProt Q9UM07); experiment: hPAD4 RFMS (RapidFire mass spectrometry) PAD4 inhibition assay; type: biochemical; details: hPAD4 enzyme, RFMS readout;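 on hPAD4 RFMS pIC50: grade E means pIC50 at most 4 and F means pIC50 4.0 to 5.0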
Protocol: as §1, §2, §3, §4, §5

[3] = pIC50=−log(IC50), read-out: mPAD4 RFMS pIC50 (converted)
[4] = pIC50=−log(IC50), read-out: hPAD4 RFMS pIC50 (converted)

Sequence of hPAD4 (Q9UM07 whole entry): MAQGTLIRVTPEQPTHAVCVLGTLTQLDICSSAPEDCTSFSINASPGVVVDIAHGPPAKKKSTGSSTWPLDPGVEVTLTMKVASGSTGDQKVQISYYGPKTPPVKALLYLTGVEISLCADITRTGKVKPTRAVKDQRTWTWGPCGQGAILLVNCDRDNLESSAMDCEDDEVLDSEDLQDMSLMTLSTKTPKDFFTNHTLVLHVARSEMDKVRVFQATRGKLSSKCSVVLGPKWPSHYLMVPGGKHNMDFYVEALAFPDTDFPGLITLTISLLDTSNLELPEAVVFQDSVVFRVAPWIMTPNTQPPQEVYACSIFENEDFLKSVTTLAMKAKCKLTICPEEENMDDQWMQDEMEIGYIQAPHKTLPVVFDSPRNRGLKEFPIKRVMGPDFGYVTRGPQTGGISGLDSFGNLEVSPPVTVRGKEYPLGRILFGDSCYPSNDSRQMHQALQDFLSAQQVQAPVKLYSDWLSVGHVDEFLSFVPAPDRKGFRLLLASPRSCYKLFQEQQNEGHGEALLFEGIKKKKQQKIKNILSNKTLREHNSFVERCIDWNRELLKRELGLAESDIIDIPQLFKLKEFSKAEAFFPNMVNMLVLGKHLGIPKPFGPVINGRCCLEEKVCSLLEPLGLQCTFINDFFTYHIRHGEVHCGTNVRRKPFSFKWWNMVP
Sequence of mPAD4 (Q9Z183 whole entry): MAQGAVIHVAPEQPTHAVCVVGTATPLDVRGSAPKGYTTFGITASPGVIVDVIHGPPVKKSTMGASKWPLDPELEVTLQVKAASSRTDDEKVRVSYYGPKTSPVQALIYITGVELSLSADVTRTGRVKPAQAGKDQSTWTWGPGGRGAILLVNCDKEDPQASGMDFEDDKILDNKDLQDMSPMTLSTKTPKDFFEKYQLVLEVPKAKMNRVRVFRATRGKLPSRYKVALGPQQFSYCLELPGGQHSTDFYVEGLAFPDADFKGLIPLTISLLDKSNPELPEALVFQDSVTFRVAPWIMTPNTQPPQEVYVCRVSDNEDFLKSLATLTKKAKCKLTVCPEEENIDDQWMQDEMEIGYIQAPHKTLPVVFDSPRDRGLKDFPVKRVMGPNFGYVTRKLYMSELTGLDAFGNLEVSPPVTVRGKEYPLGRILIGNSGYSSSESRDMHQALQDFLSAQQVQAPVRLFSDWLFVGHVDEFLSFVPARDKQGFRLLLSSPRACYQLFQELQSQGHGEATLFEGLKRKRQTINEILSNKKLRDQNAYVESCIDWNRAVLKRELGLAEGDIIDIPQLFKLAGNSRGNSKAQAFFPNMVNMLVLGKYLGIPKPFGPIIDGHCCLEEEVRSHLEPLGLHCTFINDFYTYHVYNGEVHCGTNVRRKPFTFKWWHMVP

| Structure (SMILES) | IC50 [1, 3] | IC50 ([1]; read-out: mPAD4 RFMS IC50) | IC50 [2, 4] | IC50 ([2]; read-out: hPAD4 RFMS IC50) |
| --- | --- | --- | --- | --- |
| CCn1c(-c2nc3cc(C(=O)N4C[C@H]5CC[C@@H]4[C@@H]5N)cc(OC)c3n2C)cc2ccc(C)nc21 [Compound I-160] | < 1 µM | < 1 µM | < 1 µM | < 1 µM |
| CCn1c(-c2nc3cc(C(=O)N4CCC[C@@H](N)C4)cc(OC)c3n2C)cc2ccc(C)nc21 [Compound I-161] | < 1 µM | < 1 µM | < 1 µM | < 1 µM |
| COc1cc(C(=O)N2C[C@H]3C[C@H](O)[C@@H]2[C@@H]3N)cc2nc(-c3cc4cccnc4n3CC3CC3)n(C)c12 [Compound I-162, (1S,4R,6S,7R)-7-Amino-2-{2-[1-(cyclopropylmethyl)-1H-pyrrolo[2,3-b]pyridin-2-yl]-7-methoxy-1-methyl-1H-1,3-benzodiazole-5-carbonyl}-2-azabicyclo[2.2.1]heptan-6-ol] | 1 to 10 µM | 1 to 5 µM | < 1 µM | < 1 µM |
| CCn1c(-c2nc3cc(C(=O)N4CCC[C@@H](N)C4)cc(OC)c3n2C[C@H]2C[C@@](C)(OC)C2)cc2cccnc21 [Compound I-163] | < 1 µM | < 1 µM | 1 to 10 µM | 1 to 5 µM |
| CCn1c(-c2nc3cc(C(=O)N4CCC[C@@H](N)C4)cc(F)c3n2C)cc2cccnc21 [Compound I-164] | 1 to 10 µM | 5 to 10 µM | 1 to 10 µM | 1 to 5 µM |
| CCn1c(-c2nc3cc(C(=O)N4C[C@H]5CC[C@@H]4[C@@H]5N)cc(F)c3n2C)cc2cccnc21 [Compound I-165] | 1 to 10 µM | 1 to 5 µM | 1 to 10 µM | 1 to 5 µM |
| Cn1c(-c2cc3cccnc3n2CC2CC2)nc2cc(C(=O)N3CCC[C@@H](N)C3)cc(F)c21 [Compound I-166] | 1 to 10 µM | 1 to 5 µM | < 1 µM | < 1 µM |
| CCn1c(-c2nc3cc(C(=O)N4CCC[C@@H](N)C4)c(F)cc3n2C)cc2cccnc21 [Compound I-171] | 1 to 10 µM | 5 to 10 µM | 1 to 10 µM | 5 to 10 µM |
| Cn1c(-c2cc3cccnc3n2CC2CC2)nc2cc(C(=O)N3CCC[C@@H](N)C3)c(F)cc21 [Compound I-172] | 1 to 10 µM | 1 to 5 µM | 1 to 10 µM | 1 to 5 µM |
| CCn1c(-c2nc3cc(C(=O)N4C[C@H]5CC[C@@H]4[C@@H]5N)cc(OC)c3n2CC2CCOCC2)cc2cccnc21 [Compound I-173] | 1 to 10 µM | 1 to 5 µM | < 1 µM | < 1 µM |
| CCn1c(-c2nc3cc(C(=O)N4CCC[C@@H](N)C4)cc(OC)c3n2CC2CCOCC2)cc2cccnc21 [Compound I-174] | 1 to 10 µM | 1 to 5 µM | 1 to 10 µM | 1 to 5 µM |
| CCn1c(-c2nc3cc(C(=O)N4C[C@H]5CC[C@@H]4[C@@H]5N)cc(OC)c3n2CCOC)cc2cccnc21 [Compound I-175] | 1 to 10 µM | 1 to 5 µM | < 1 µM | < 1 µM |
| CCn1c(-c2nc3cc(C(=O)N4CCC[C@@H](N)C4)cc(OC)c3n2CCOC)cc2cccnc21 [Compound I-176] | 1 to 10 µM | 1 to 5 µM | 1 to 10 µM | 1 to 5 µM |
| COCCn1c(-c2cc3cccnc3n2CC2CC2)nc2cc(C(=O)N3CCC[C@@H](N)C3)cc(OC)c21 [Compound I-177] | < 1 µM | < 1 µM | 1 to 10 µM | 1 to 5 µM |
| COCCn1c(-c2cc3cccnc3n2CC2CC2)nc2cc(C(=O)N3C[C@H]4CC[C@@H]3[C@@H]4N)cc(OC)c21 [Compound I-178] | < 1 µM | < 1 µM | < 1 µM | < 1 µM |
| CCn1c(-c2nc3cc(C(=O)N4C[C@H]5CC[C@@H]4[C@@H]5N)cc(OC)c3n2CC2CC(F)(F)C2)cc2cccnc21 [Compound I-179] | 1 to 10 µM | 1 to 5 µM | < 1 µM | < 1 µM |
| CCn1c(-c2nc3cc(C(=O)N4CCC[C@@H](N)C4)cc(OC)c3n2CC2CC(F)(F)C2)cc2cccnc21 [Compound I-180] | < 1 µM | < 1 µM | 1 to 10 µM | 1 to 5 µM |
| COc1cc(C(=O)N2C[C@H]3CC[C@@H]2[C@@H]3N)cc2nc(-c3cc4cccnc4n3CC3CC3)n(C[C@H]3C[C@@](C)(OC)C3)c12 [Compound I-181] | < 1 µM | < 1 µM | < 1 µM | < 1 µM |
| COc1cc(C(=O)N2CCC[C@@H](N)C2)cc2nc(-c3cc4cccnc4n3CC3CC3)n(C[C@H]3C[C@@](C)(OC)C3)c12 [Compound I-182] | < 1 µM | < 1 µM | < 1 µM | < 1 µM |

| Structure (SMILES) | IC50 [1, 3] | IC50 ([1]; read-out: mPAD4 RFMS IC50) | IC50 [2, 4] | IC50 ([2]; read-out: hPAD4 RFMS IC50) |
| --- | --- | --- | --- | --- |
| CCn1c(-c2nc3cc(C(=O)N4C[C@H]5CC[C@@H]4[C@@H]5N)cc(OC)c3n2C)cc2ccc(C(F)(F)F)nc21 [Compound I-183] | < 1 µM | < 1 µM | < 1 µM | < 1 µM |
| CCn1c(-c2nc3cc(C(=O)N4CCC[C@@H](N)C4)cc(OC)c3n2C)cc2ccc(C(F)(F)F)nc21 [Compound I-184] | < 1 µM | < 1 µM | < 1 µM | < 1 µM |
| CCn1c(-c2nc3cc(C(=O)N4CCC[C@@H](N)C4)ccc3n2CCOC)cc2cccnc21 [Compound I-185] | 10 to 100 µM | > 10 µM | 1 to 10 µM | 5 to 10 µM |
| CCn1c(-c2nc3cc(C(=O)N4C[C@H]5CC[C@@H]4[C@@H]5N)ccc3n2CCOC)cc2cccnc21 [Compound I-186] | 10 to 100 µM | > 10 µM | 1 to 10 µM | 1 to 5 µM |
| COc1cc(C(=O)N2C[C@H]3CC4OC(=O)N[C@H]3[C@@H]42)cc2nc(-c3cc4cccnc4n3CC3CC3)n(C)c12 [Compound I-187, (1S,2R,8R)-10-{2-[1-(Cyclopropylmethyl)-1H-pyrrolo[2,3-b]pyridin-2-yl]-7-methoxy-1-methyl-1H-1,3-benzodiazole-5-carbonyl}-5-oxa-3,10-diazatricyclo[4.4.0.0^2,8]decan-4-one] | 10 to 100 µM | > 10 µM | 10 to 100 µM | > 10 µM |
| COc1ccc2cc(-c3nc4cc(C(=O)N5C[C@H]6CC[C@@H]5[C@@H]6N)cc(OC)c4n3C)n(CC3CC3)c2n1 [Compound I-188] | < 1 µM | < 1 µM | < 1 µM | < 1 µM |
| CCn1c(-c2nc3cc(C(=O)N4C[C@H]5CC[C@@H]4[C@@H]5N)cc(OC)c3n2C)cc2ccc(C(F)F)nc21 [Compound I-189, (1R,4R,7R)-2-{2-[6-(Difluoromethyl)-1-ethyl-1H-pyrrolo[2,3-b]pyridin-2-yl]-7-methoxy-1-methyl-1H-1,3-benzodiazole-5-carbonyl}-2-azabicyclo[2.2.1]heptan-7-amine] | < 1 µM | < 1 µM | < 1 µM | < 1 µM |
| COCCn1c(-c2nc3cc(C(=O)N4C[C@@H](N)CC[C@H]4C)cc(OC)c3n2C)cc2cccnc21 [Compound I-190] | 1 to 10 µM | 1 to 5 µM | 1 to 10 µM | 1 to 5 µM |
| Cn1c(-c2cc3cccnc3n2CC2CC2)nc2cc(C(=O)N3C[C@H]4CC[C@@H]3[C@@H]4N)cc(F)c21 [Compound I-191] | 1 to 10 µM | 1 to 5 µM | < 1 µM | < 1 µM |
| COCCn1c(-c2nc3cc(C(=O)N4C[C@H]5CC[C@@H]4[C@@H]5N)ccc3n2C)cc2ccc(OC)nc21 [Compound I-192] | 1 to 10 µM | 5 to 10 µM | < 1 µM | < 1 µM |
| COCCn1c(-c2nc3cc(C(=O)N4CCC[C@@H](N)C4)ccc3n2C)cc2ccc(OC)nc21 [Compound I-193] | 1 to 10 µM | 1 to 5 µM | 1 to 10 µM | 1 to 5 µM |
| Cn1c(-c2cc3cccnc3n2CC2CC2)nc2cc(C(=O)N3C[C@H]4CC[C@@H]3[C@@H]4N)c(F)cc21 [Compound I-194] | 1 to 10 µM | 5 to 10 µM | 1 to 10 µM | 1 to 5 µM |
| COCCn1c(-c2nc3cc(C(=O)N4C[C@H](N)CC[C@@H]4C)cc(OC)c3n2C)cc2cccnc21 [Compound I-195] | 1 to 10 µM | 1 to 5 µM | 1 to 10 µM | 5 to 10 µM |
| COc1cc(C(=O)N2C[C@H]3CC[C@@H]2[C@@H]3N)cc2nc(-c3cc4ccc(C(F)(F)F)nc4n3CC3CC3)n(C)c12 [Compound I-196] | < 1 µM | < 1 µM | < 1 µM | < 1 µM |
| COc1cc(C(=O)N2CCC[C@@H](N)C2)cc2nc(-c3cc4ccc(C(F)(F)F)nc4n3CC3CC3)n(C)c12 [Compound I-197] | < 1 µM | < 1 µM | < 1 µM | < 1 µM |
| COc1cc(C(=O)N2C[C@H]3CC[C@@H]2[C@@H]3N)cc2nc(-c3cc4ccc(C)nc4n3CC3CC3)n(C)c12 [Compound I-198] | < 1 µM | < 1 µM | < 1 µM | < 1 µM |
| COc1cc(C(=O)N2CCC[C@@H](N)C2)cc2nc(-c3cc4ccc(C)nc4n3CC3CC3)n(C)c12 [Compound I-199] | < 1 µM | < 1 µM | < 1 µM | < 1 µM |
| CCn1c(-c2nc3cc(C(=O)N4C[C@H]5CC[C@@H]4[C@@H]5N)cc(OC)c3n2C)cc2ccc(OC(F)F)nc21 [Compound I-200, (1R,4R,7R)-2-{2-[6-(difluoromethoxy)-1-ethyl-1H-pyrrolo[2,3-b]pyridin-2-yl]-7-methoxy-1-methyl-1H-1,3-benzodiazole-5-carbonyl}-2-azabicyclo[2.2.1]heptan-7-amine] | < 1 µM | < 1 µM | < 1 µM | < 1 µM |
